Experimental data taken from patent publication US20060029644A1, “In vitro biochemical reactions with free anhydrous D-ribose” (priority 2004, published 2006).
“Also recorded” adds a separate entry of the source. One block for each compound: values may come before it.

What was measured:
[1] = stability of the powder on heating; format: physicochemical; settings: for stability of the powder when heated: 150° F., heated alone or mixed with each other
[2] = taken in 20 grams or less a day; cited from earlier work
solubility in water = format: physicochemical

Structure (SMILES): O=C(CO)[C@@H](O)[C@H](O)[C@H](O)CO [fructose, reference compound]
- stability of the powder when heated [1]: remain powders

Structure (SMILES): O.O=C[C@H](O)[C@H](O)[C@H](O)CO [ribose monohydrate, D-ribose monohydrate]
- stability compared with the anhydrous powder ([1]; especially with water, sugars and some consumable monohydrates): far more stable
- solubility in water (solubility in water; listed as monohydrate): very soluble in water
- solubility in water (solubility in water; monohydrate): highly soluble in water; also recorded: extreme solubility; also recorded: highest possible solubility in water

Further lines, with some results ahead:

- temperature to which the powder can be heated without losing its powdery form [1]: < 120 ° F.
- stability of the powder when heated [1]: unstable
Structure (SMILES): O=C[C@H](O)[C@H](O)[C@H](O)CO [anhydrous D-ribose]
- toxicity [2]: extremely low toxicity

- stability of the powder when heated [1]: remain powders
Structure (SMILES): OC[C@H]1O[C@@H](O[C@H]2[C@H](O)[C@@H](O)C(O)O[C@@H]2CO)[C@H](O)[C@@H](O)[C@H]1O (stereo partly drawn) [lactose, reference compound]

- stability of the powder when heated [1]: remain powders
Structure (SMILES): OC[C@H]1O[C@@](CO)(O[C@H]2O[C@H](CO)[C@@H](O)[C@H](O)[C@H]2O)[C@@H](O)[C@@H]1O [sucrose, reference compound]
